{"source": "patent US20240216402A1", "about": "“PHARMACEUTICAL COMPOSITION, AND PREPARATION METHOD THEREFOR AND APPLICATION THEREOF” (QILU PHARMACEUTICAL CO., LTD., priority 2021, published 2024)", "key": {"[1]": {"assay": "particle size distribution of raw material samples", "type": "physicochemical", "from_the_text": "In the present invention, D50 refers to the particle size corresponding to the cumulative volume distribution percentage of spirocyclic aryl phosphorus oxides or pharmaceutically acceptable salts thereof reaching 50% measured from a small particle size; D90 refers to the particle size corresponding to the cumulative volume distribution percentage of spirocyclic aryl phosphorus oxides or pharmaceutically acceptable salts thereof reaching 90% measured from a small particle size."}, "[2]": {"tested_on": "other related serine, threonine and tyrosine except EGFR wild type", "assay": "kinase selectivity", "type": "biochemical", "conditions": "in the detected concentration range"}, "[3]": {"assay": "solubility in solvents (description of the substance)", "type": "physicochemical", "from_the_text": "(§1) The solubility of the drug directly influences the dissolution rate of the composition containing the drug, which in turn influences the bioavailability of the pharmaceutical composition. Therefore, how to improve the dissolution rate of pharmaceutical compositions containing spirocyclic aryl phosphorus oxide in solvents other than hydrochloric acid has become an urgent problem to be solved."}, "[4]": {"assay": "hygroscopicity (description of the substance)", "type": "physicochemical", "from_the_text": "as §1"}, "[5]": {"assay": "Determination of solubility in buffers at different pHs (saturated solubility by HPLC)", "type": "physicochemical", "conditions": "for solubility at 24 h: thermodynamic from solid, 37° C.", "method": "(§2) The solubilities of spirocyclic aryl phosphorus oxides in buffers at different pHs were determined. Nine test samples of 4 mg were each weighed and added to sample bottles of 1.5 mL, and then different solvents (0.1 mol/L HCl, 0.01 mol/L HCl, pH3.5 acetate buffer, pH4.5 acetate buffer, pH5.5 phosphate buffer, pH6.5 phosphate buffer, pH6.8 phosphate buffer, pH7.5 phosphate buffer and water) of 1 mL were added. According to the dissolution, the raw material compounds were continuously added to form a saturated solution. A magneton was added to the saturated solution and then stirred on a magnetic agitator (temperature was 37° C., away from light). After stirring for 24 hours, the samples were taken and centrifuged, and the residual solid samples in the lower layer were tested by X-ray powder diffraction (XRPD). The upper sample was filtered by a filter membrane, the final pH value of the filtrate was measured, and the saturated solubility of the compound was determined by high performance liquid chromatography (HPLC)."}, "[6]": {"assay": "XRPD of residual solid in the solubility test", "type": "physicochemical", "conditions": "24 hrs", "method": "as §2"}}}
{"smiles": "COc1cc(N2CCC3(CCN(C)CC3)CC2)ccc1Nc1ncc(Cl)c(Nc2ccccc2P(C)(C)=O)n1", "note": "[Sample 4]", "values": [{"measurement": "Particle size D10 (μm)", "setting": "[1]", "value": 5.0, "unit": "μm"}, {"measurement": "Particle size D50 (μm)", "setting": "[1]", "value": 23.8, "unit": "μm"}, {"measurement": "Particle size D90 (μm)", "setting": "[1]", "value": 62, "unit": "μm"}]}
{"smiles": "COc1cc(N2CCC3(CCN(C)CC3)CC2)ccc1Nc1ncc(Cl)c(Nc2ccccc2P(C)(C)=O)n1", "note": "[Sample 3]", "values": [{"measurement": "Particle size D10 (μm)", "setting": "[1]", "value": 1.6, "unit": "μm"}, {"measurement": "Particle size D50 (μm)", "setting": "[1]", "value": 13.0, "unit": "μm"}, {"measurement": "Particle size D90 (μm)", "setting": "[1]", "value": 40.3, "unit": "μm"}]}
{"smiles": "COc1cc(N2CCC3(CCN(C)CC3)CC2)ccc1Nc1ncc(Cl)c(Nc2ccccc2P(C)(C)=O)n1", "note": "[spirocyclic aryl phosphorus oxide, (2-((5-chloro-2-((2-methoxy-4-(9-methyl-3,9-diazaspiro[5.5]undecan-3-yl)phenyl)amino)pyrimidin-4-yl)amino)phenyl)dimethylphosphine oxide]", "values": [{"measurement": "inhibitory activity to other kinases", "setting": "[2]", "value": "Low inhibitory activity"}, {"measurement": "solubility", "setting": "[3]; 1 mol/L hydrochloric acid solution", "value": "easily soluble"}, {"measurement": "solubility", "setting": "[3]; 1 mol/L sodium hydroxide solution", "value": "practically insoluble, or insoluble"}, {"measurement": "solubility", "setting": "[3]; acetonitrile", "value": "slightly soluble"}, {"measurement": "solubility", "setting": "[3]; dichloromethane", "value": "easily soluble"}, {"measurement": "solubility", "setting": "[3]; ethanol", "value": "slightly soluble"}, {"measurement": "solubility", "setting": "[3]; methanol", "value": "sparingly soluble"}, {"measurement": "solubility", "setting": "[3]; water", "value": "slightly soluble"}, {"measurement": "hygroscopicity", "setting": "[4]", "value": "almost no hygroscopicity"}, {"measurement": "Dose/solubility (mL, in 60 mg specifications)", "setting": "[5]; 0.01 mol/L HCl (pH2.02)", "value": 8.69, "unit": "mL"}, {"measurement": "Conclusions (solubility class)", "setting": "[5]; 0.1 mol/L HCl (pH 1.02)", "value": "soluble (10 ml to less than 30 ml)"}, {"measurement": "Dose/solubility (mL, in 60 mg specifications)", "setting": "[5]; 0.1 mol/L HCl (pH 1.02)", "value": 1.12, "unit": "mL"}, {"measurement": "solubility at 24 h", "setting": "[5]; pH 2.02, simulated gastric fluid, 0.01 mol/L HCl (pH2.02)", "value": 6900, "unit": "µg/mL"}, {"measurement": "solubility at 24 h", "setting": "[5]; pH 3.5 acetate buffer, aqueous buffer, pH 3.5 buffer (pH 3.53), acetate", "value": 279000, "unit": "µg/mL"}, {"measurement": "Dose/solubility (mL, in 60 mg specifications)", "setting": "[5]; pH 3.5 buffer (pH 3.53)", "value": 0.22, "unit": "mL"}, {"measurement": "solubility at 24 h", "setting": "[5]; pH 4.5 acetate buffer, aqueous buffer, pH 4.5 buffer (pH 4.49), acetate", "value": 108000, "unit": "µg/mL"}, {"measurement": "Dose/solubility (mL, in 60 mg specifications)", "setting": "[5]; pH 4.5 buffer (pH 4.49)", "value": 0.56, "unit": "mL"}, {"measurement": "Dose/solubility (mL, in 60 mg specifications)", "setting": "[5]; pH 5.5 buffer (pH 5.47)", "value": 8.45, "unit": "mL"}, {"measurement": "solubility at 24 h", "setting": "[5]; pH 5.5 phosphate buffer, aqueous buffer, pH 5.5 buffer (pH 5.47), phosphate", "value": 7100, "unit": "µg/mL"}, {"measurement": "Dose/solubility (mL, in 60 mg specifications)", "setting": "[5]; pH 6.5 buffer (pH 6.45)", "value": 5.41, "unit": "mL"}, {"measurement": "solubility at 24 h", "setting": "[5]; pH 6.5 phosphate buffer, aqueous buffer, pH 6.5 buffer (pH 6.45), phosphate", "value": 11100, "unit": "µg/mL"}, {"measurement": "Dose/solubility (mL, in 60 mg specifications)", "setting": "[5]; pH 6.8 buffer (pH 6.83)", "value": 16.67, "unit": "mL"}, {"measurement": "solubility at 24 h", "setting": "[5]; pH 6.8 phosphate buffer, aqueous buffer, pH 6.8 buffer (pH 6.83), phosphate", "value": 3600, "unit": "µg/mL"}, {"measurement": "Dose/solubility (mL, in 60 mg specifications)", "setting": "[5]; pH 7.5 buffer (pH 7.53)", "value": 70.59, "unit": "mL"}, {"measurement": "solubility at 24 h", "setting": "[5]; pH 7.5 phosphate buffer, aqueous buffer, pH 7.5 buffer (pH 7.53), phosphate", "value": 850, "unit": "µg/mL"}, {"measurement": "solubility at 24 h", "setting": "[5]; simulated gastric fluid, 0.1 mol/L HCl (pH 1.02)", "value": 53400, "unit": "µg/mL"}, {"measurement": "solubility at 24 h", "setting": "[5]; water (pH 6.33)", "value": 60, "unit": "µg/mL"}, {"measurement": "Dose/solubility (mL, in 60 mg specifications)", "setting": "[5]; water (pH 6.33)", "value": ">250", "unit": "mL"}, {"measurement": "XRPD (crystal form of residual solid)", "setting": "[6]; 0.01 mol/L HCl (pH2.02)", "value": "no change"}, {"measurement": "XRPD (crystal form of residual solid)", "setting": "[6]; 0.1 mol/L HCl (pH 1.02)", "value": "no change"}, {"measurement": "XRPD (crystal form of residual solid)", "setting": "[6]; pH 3.5 buffer (pH 3.53)", "value": "no change"}, {"measurement": "XRPD (crystal form of residual solid)", "setting": "[6]; pH 4.5 buffer (pH 4.49)", "value": "no change"}, {"measurement": "XRPD (crystal form of residual solid)", "setting": "[6]; pH 5.5 buffer (pH 5.47)", "value": "no change"}, {"measurement": "XRPD (crystal form of residual solid)", "setting": "[6]; pH 6.5 buffer (pH 6.45)", "value": "no change"}, {"measurement": "XRPD (crystal form of residual solid)", "setting": "[6]; pH 6.8 buffer (pH 6.83)", "value": "no change"}, {"measurement": "XRPD (crystal form of residual solid)", "setting": "[6]; pH 7.5 buffer (pH 7.53)", "value": "no change"}, {"measurement": "XRPD (crystal form of residual solid)", "setting": "[6]; water (pH 6.33)", "value": "no change"}]}
{"smiles": "COc1cc(N2CCC3(CCN(C)CC3)CC2)ccc1Nc1ncc(Cl)c(Nc2ccccc2P(C)(C)=O)n1", "note": "[Sample 1]", "values": [{"measurement": "Particle size D10 (μm)", "setting": "[1]", "value": 0.7, "unit": "μm"}, {"measurement": "Particle size D50 (μm)", "setting": "[1]", "value": 5.4, "unit": "μm"}, {"measurement": "Particle size D90 (μm)", "setting": "[1]", "value": 11.6, "unit": "μm"}]}
{"smiles": "COc1cc(N2CCC3(CCN(C)CC3)CC2)ccc1Nc1ncc(Cl)c(Nc2ccccc2P(C)(C)=O)n1", "note": "[Sample 5]", "values": [{"measurement": "Particle size D10 (μm)", "setting": "[1]", "value": 1.8, "unit": "μm"}, {"measurement": "Particle size D50 (μm)", "setting": "[1]", "value": 16.1, "unit": "μm"}, {"measurement": "Particle size D90 (μm)", "setting": "[1]", "value": 69, "unit": "μm"}]}
{"smiles": "COc1cc(N2CCC3(CCN(C)CC3)CC2)ccc1Nc1ncc(Cl)c(Nc2ccccc2P(C)(C)=O)n1", "note": "[Sample 7]", "values": [{"measurement": "Particle size D10 (μm)", "setting": "[1]", "value": 6.8, "unit": "μm"}, {"measurement": "Particle size D50 (μm)", "setting": "[1]", "value": 47.9, "unit": "μm"}, {"measurement": "Particle size D90 (μm)", "setting": "[1]", "value": 122, "unit": "μm"}]}
{"smiles": "COc1cc(N2CCC3(CCN(C)CC3)CC2)ccc1Nc1ncc(Cl)c(Nc2ccccc2P(C)(C)=O)n1", "note": "[Sample 6]", "values": [{"measurement": "Particle size D10 (μm)", "setting": "[1]", "value": 2.3, "unit": "μm"}, {"measurement": "Particle size D50 (μm)", "setting": "[1]", "value": 18.2, "unit": "μm"}, {"measurement": "Particle size D90 (μm)", "setting": "[1]", "value": 79.6, "unit": "μm"}]}
{"smiles": "COc1cc(N2CCC3(CCN(C)CC3)CC2)ccc1Nc1ncc(Cl)c(Nc2ccccc2P(C)(C)=O)n1", "note": "[Sample 8]", "values": [{"measurement": "Particle size D10 (μm)", "setting": "[1]", "value": 7.8, "unit": "μm"}, {"measurement": "Particle size D50 (μm)", "setting": "[1]", "value": 63.1, "unit": "μm"}, {"measurement": "Particle size D90 (μm)", "setting": "[1]", "value": 193, "unit": "μm"}]}
{"smiles": "COc1cc(N2CCC3(CCN(C)CC3)CC2)ccc1Nc1ncc(Cl)c(Nc2ccccc2P(C)(C)=O)n1", "note": "[Sample 2]", "values": [{"measurement": "Particle size D10 (μm)", "setting": "[1]", "value": 1.3, "unit": "μm"}, {"measurement": "Particle size D50 (μm)", "setting": "[1]", "value": 10.1, "unit": "μm"}, {"measurement": "Particle size D90 (μm)", "setting": "[1]", "value": 27.1, "unit": "μm"}]}
